Measured values: patent US5801182A, “Amine substituted compounds” (Cell Therapeutics, Inc., priority 1995, dated 1998)
Where two headings read alike, the source gives them in different places.

Tests used:
[1] = test system: CFU-GM in mouse femoral marrow; settings: in vivo
From the text: Mouse spleen conditioned-medium, at a concentration of 2%, was used in this assay. The medium and semi-solid culture mix were procured from Stem Cell Technologies in Vancouver, BC.

[2] = test system: polymorphonuclear leukocytes; settings: U.S. Pat. No. 4,636,507; cited from earlier work
[3] = test system: tumor necrosis factor, TNF; settings: cited from earlier work
PAPH = PAPH inhibition / DAG production in TNF-stimulated human mesangial cells; type: cell-based; settings: specific activation pathway that does not involve PI
From the text: These inventive compounds and pharmaceutical compositions are capable of, among other things, inhibiting subspecies of LPAAT and PAPH enzymes with substrate specificity for intermediates with 1,2-diunsaturated and 1-alkyl, 2-unsaturated subspecies. […] In contrast, the inventive compounds affect that subset of PAPH and LPAAT relating to substrates with unsaturated fatty acids other than arachidonate in the sn-2 position, not the housekeeping forms of these enzymes that serve the PI pathway.

CFU-GM in mouse femoral marrow [1]	SMILES	chemotaxis in polymorphonuclear leukocytes [2]	BMT-related complications ([3]; co-administered PTX and GM-CSF, allogeneic bone marrow transplant patients)	TNF levels ([3]; co-administered PTX and GM-CSF, patients undergoing allogeneic bone marrow transplant)	TNF levels ([3]; normal volunteers)	inhibition of PAPH (PAPH)
no CFU-GM were detectable	O=c1[nH]cc(F)c(=O)[nH]1 [5-fluorouracil]					
	CC(O)CCCCn1c(=O)c2c(ncn2C)n(C)c1=O (stereo not shown) [M1, 1-(5-hydroxyhexyl)-3,7-dimethylxanthine]	enhance chemotaxis				
	CC(=O)CCCCn1c(=O)c2c(ncn2C)n(C)c1=O [PTX, 1-(5-oxohexyl)-3,7-dimethylxanthine]	enhance chemotaxis	reduced BMT-related complications	decreased levels of tumor necrosis factor, TNF	TNF levels were higher	blocks PAPH
